According to PMC10607100, “Anticancer and Antiphytopathogenic Activity of Fluorinated Isatins and Their Water-Soluble Hydrazone Derivatives” (International Journal of Molecular Sciences, 2023):
Where two headings read alike, the source gives them in different places.

Tests used:
Micrococcus luteus B-109 = assay: Agar-well diffusion, bactericidal activity; format: cell-based; conditions: Micrococcus luteus
Summary of the method: (§1)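 Bacteria spread on agar (BP medium; GYCa for X. campestris; pH 7.2–7.4) with 6-mm wells, each receiving 150 μL compound solution. Cultures grown at 28 °C; growth-inhibition zone width measured after 36–40 h.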

[1] = tested on: Pectobacterium atrosepticum 1043; assay: Agar-well diffusion, bactericidal activity; format: cell-based; conditions: Pectobacterium atrosepticum, 1043; 2 mM/L; average of 3 experiments; read-out: width of the inhibition zone (mm), P. atrosepticum
Summary of the method: as §1

[2] = tested on: Pectobacterium carotovorum subsp. carotovorum MI; assay: Agar-well diffusion, bactericidal activity; format: cell-based; conditions: Pectobacterium carotovorum, 2 mM/L
Summary of the method: as §1

[3] = tested on: Pseudomonas fluorescens EL-2.1; assay: Agar-well diffusion, bactericidal activity; format: cell-based; conditions: Pseudomonas fluorescens, EL2.1, 2 mM/L
Summary of the method: as §1

[4] = tested on: Phytophthora cactorum VKM F-985; assay: Mycelial radial growth inhibition; format: cell-based; conditions: for inhibition of growth at 1 µM: 1 nmol/mL; for inhibition of growth at 1 µM / inhibition of growth at 3 µM / inhibition of growth at 7 µM / inhibition of growth / inhibition of growth at 40 µM: read-out: Inhibition value, I (%); for inhibition of growth at 3 µM: 3 nmol/mL; for inhibition of growth at 7 µM: 7 nmol/mL; for inhibition of growth: 27 nmol/mL; for inhibition of growth at 40 µM: 40 nmol/mL
Summary of the method: (§2)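 Compounds mixed into molten GPY agar at various concentrations; centre inoculated with a 5-mm mycelial plug from 10-day cultures and incubated at 27 °C. Colony diameter compared with untreated control until control plate was covered (usually 12 days); ≥4 replicates in two experiments.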

[5] = tested on: Fusarium oxysporum IBPPM 543; assay: Mycelial radial growth inhibition; format: cell-based; conditions: for inhibition of growth at 1 µM: 1 nmol/mL; for inhibition of growth at 1 µM / inhibition of growth at 3 µM / inhibition of growth at 20 µM / inhibition of growth at 30 µM: read-out: Inhibition value, I (%); for inhibition of growth at 3 µM: 3 nmol/mL; for inhibition of growth at 20 µM: 20 nmol/mL; for inhibition of growth at 30 µM: 30 nmol/mL
Summary of the method: as §2

[6] = tested on: five representative phytopathogens; assay: Agar-well diffusion, bactericidal activity over the panel of phytopathogens; format: cell-based; conditions: 36 h, 2 mM solutions; dependent on the test system used; read-out: inhibition zone width (mm), range over the test systems
Summary of the method: as §1

[7] = tested on: Xanthomonas campestris B-610; assay: Agar-well diffusion, bactericidal activity; format: cell-based; conditions: Xanthomonas campestris
Summary of the method: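 Agar-well diffusion on GYCa agar (pH 7.2–7.4) seeded with bacterial suspension; 150 μL compound solution placed in 6-mm wells. Inhibition zone width measured after 36–40 h incubation.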

[8] = Table S3, read-out: Inhibition zone width (mm), not less
[9] = Phytophthora cactorum, 72 h, age of the fungus 3 days
[10] = Phytophthora cactorum, 120 h, age of the fungus 5 days
[11] = Phytophthora cactorum, 168 h, age of the fungus 7 days
[12] = Phytophthora cactorum, 216 h, age of the fungus 9 days
[13] = Fusarium oxysporum, IBPPM543, 72 h, age of the fungus 3 days
[14] = Fusarium oxysporum, IBPPM543, 120 h, age of the fungus 5 days
[15] = Fusarium oxysporum, IBPPM543, 168 h, age of the fungus 7 days
[16] = Fusarium oxysporum, IBPPM543, 216 h, age of the fungus 9 days

## Cc1ccc2c(c1)C(=NNC(=O)C[n+]1ccccc1)C(=O)N2Cc1cccc(C(F)(F)F)c1.[Cl-] [Compound 5e, 1-(2-(2-(5-Methyl-2-oxo-1-(3-(trifluoromethyl)benzyl)indolin-3-ylidene)hydrazinyl)-2-oxoethyl)pyridin-1-ium chloride]
Micrococcus luteus B-109; B109, 2 mM/L, average of 3 experiments, read-out: width of the inhibition zone (mm), M. luteus
  zone of inhibition at 2000 µM: 6 mm
Micrococcus luteus B-109; B109, Table S3, 2 mM/L, read-out: Inhibition zone width (mm), not less
  zone of inhibition at 2000 µM: ≥ 6 mm
[1]
  zone of inhibition at 2000 µM: 4 mm
[2]; average of 3 experiments, read-out: width of the inhibition zone (mm), P. carotovorum subsp. carotovorum
  zone of inhibition at 2000 µM: 5 mm
[2]; [8]
  zone of inhibition at 2000 µM: ≥ 5 mm
[3]; average of 3 experiments, read-out: width of the inhibition zone (mm), Ps. fluorescens
  zone of inhibition at 2000 µM: 7 mm
[3]; [8]
  zone of inhibition at 2000 µM: ≥ 7 mm
other
  melting point: 202 to 203 °C
[4]; 5 days of growth
  antagonistic effect superior to that of N-cetylpyridinium chloride: 1.3 times
  antagonistic effect superior to that of fludioxonil: 1.1 times
[4]; [9]
  inhibition of growth at 1 µM: 20%
  inhibition of growth at 3 µM: 23%
  inhibition of growth at 7 µM: 25%
  inhibition of growth: 28%
  inhibition of growth at 40 µM: 35%
[4]; Phytophthora cactorum, 120 h, day 5, read-out: EC50, µg/mL at Day 5, P. cactorum
  EC50: 27.4 µg/mL
[4]; [10]
  inhibition of growth at 1 µM: 16%
  inhibition of growth at 3 µM: 19%
  inhibition of growth at 7 µM: 30%
  inhibition of growth: 35%
  inhibition of growth at 40 µM: 38%
[4]; [11]
  inhibition of growth at 1 µM: 15%
  inhibition of growth at 3 µM: 17%
  inhibition of growth at 7 µM: 23%
  inhibition of growth: 26%
  inhibition of growth at 40 µM: 29%
[4]; [12]
  inhibition of growth at 1 µM: 14%
  inhibition of growth at 3 µM: 17%
  inhibition of growth at 7 µM: 19%
  inhibition of growth: 21%
  inhibition of growth at 40 µM: 26%
[5]; [13]
  inhibition of growth at 1 µM: 33%
  inhibition of growth at 3 µM: 66%
  inhibition of growth at 20 µM: 69%
  inhibition of growth at 30 µM: 75%
[5]; Fusarium oxysporum, IBPPM543, 120 h, day 5, read-out: EC50, µg/mL at Day 5, F. oxysporum
  EC50: 0.6 µg/mL
[5]; [14]
  inhibition of growth at 1 µM: 48%
  inhibition of growth at 3 µM: 67%
  inhibition of growth at 20 µM: 72%
  inhibition of growth at 30 µM: 76%
[5]; [15]
  inhibition of growth at 1 µM: 33%
  inhibition of growth at 3 µM: 65%
  inhibition of growth at 20 µM: 69%
  inhibition of growth at 30 µM: 72%
[5]; [16]
  inhibition of growth at 1 µM: 18%
  inhibition of growth at 3 µM: 64%
  inhibition of growth at 20 µM: 67%
  inhibition of growth at 30 µM: 71%
[5]; Fusarium oxysporum, IBPPM543, read-out: IC50, antifungal activity against F. oxysporum
  IC50: 0.6 µg/mL
[5]; same culture age (5 days)
  fungicidal action stronger than N-cetylpyridinium chloride: 235 times
  inhibition of Fusarium growth greater than fludioxonil: 139 times
[6]
  zone of inhibition at 2000 µM: 4 to 7 mm
[7]; B610, 2 mM/L, average of 3 experiments, read-out: width of the inhibition zone (mm), X. campestris
  zone of inhibition at 2000 µM: 5 mm
[7]; B610, Table S3, 2 mM/L, read-out: Inhibition zone width (mm), not less
  zone of inhibition at 2000 µM: ≥ 5 mm
